# Tests used:
# Assay type in all cases: in vivo
# Kochia (Kochia scoparia) [1] = assay: Test A preemergence
# Procedure, shortened: (§1)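 Each rating is a visual injury score from 0 to 100 given about 10 d after treatment, judged against untreated controls kept alongside in the greenhouse. In loam soil–sand blend, seeds got a preemergence directed soil spray, while postemergence plants were 2 to 10 cm tall at spraying.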
# [2] = system: barnyardgrass (Echinochloa crus-galli); assay: Test A preemergence
# Procedure, shortened: as §1
# [3] = system: giant foxtail (Setaria faberii); assay: Test A preemergence
# Procedure, shortened: as §1
# [4] = system: pigweed (Amaranthus retroflexus); assay: Test A preemergence
# [5] = system: ragweed (common ragweed, Ambrosia elatior); assay: Test A preemergence
# Procedure, shortened: as §1
# [6] = system: ryegrass, Italian (Italian ryegrass, Lolium multiflorum); assay: Test A preemergence
# Procedure, shortened: as §1
# [7] = system: Galium (catchweed bedstraw, Galium aparine); assay: Test A postemergence
# Procedure, shortened: as §1
# Kochia (Kochia scoparia) [8] = assay: Test A postemergence
# Procedure, shortened: as §1
# [9] = system: barnyardgrass (Echinochloa crus-galli); assay: Test A postemergence
# Procedure, shortened: as §1
# [10] = system: blackgrass (Alopecurus myosuroides); assay: Test A postemergence
# Procedure, shortened: as §1
# corn (Zea mays) = assay: Test A postemergence
# Procedure, shortened: as §1
# [11] = system: giant foxtail (Setaria faberii); assay: Test A postemergence
# Procedure, shortened: as §1
# [12] = system: pigweed (Amaranthus retroflexus); assay: Test A postemergence
# Procedure, shortened: as §1
# [13] = system: ragweed (common ragweed, Ambrosia elatior); assay: Test A postemergence
# Procedure, shortened: as §1
# [14] = system: ryegrass, Italian (Italian ryegrass, Lolium multiflorum); assay: Test A postemergence
# Procedure, shortened: as §1
# [15] = system: wheat (Triticum aestivum); assay: Test A postemergence
# Procedure, shortened: as §1
# [16] = system: barnyardgrass (Echinochloa crus-galli); assay: Test B flooded paddy test; settings: 250 g ai/ha, Flood, 0 to 100 scale where 0 is no effect and 100 is complete control
# Procedure, shortened: (§2)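 Response scored visually against untreated controls, 0 = no effect and 100 = complete control, 13–15 d after treatment in the greenhouse. Compounds added to paddy water held 3 cm above soil surface. Treatment given at 2-leaf stage.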
# [17] = system: ducksalad (Heteranthera limosa); assay: Test B flooded paddy test; settings: 250 g ai/ha, Flood, 0 to 100 scale where 0 is no effect and 100 is complete control
# Procedure, shortened: as §2
# rice (Oryra sativa) = assay: Test B flooded paddy test; settings: 250 g ai/ha, Flood, 0 to 100 scale where 0 is no effect and 100 is complete control
# Procedure, shortened: as §2
# [18] = system: sedge, umbrella (small-flower umbrella sedge, Cyperus difformis); assay: Test B flooded paddy test; settings: 250 g ai/ha, Flood, 0 to 100 scale where 0 is no effect and 100 is complete control
# Procedure, shortened: as §2
# [19] = 125 g ai/ha, preemergence, 0 to 100 scale (0 no effect, 100 complete control)
# [20] = Preemergence, 500 g ai/ha, 0 is no effect, 100 is complete control
# [21] = 125 g ai/ha, postemergence, visual injury rating on 0 to 100 scale (0 no effect, 100 complete control), approx. 10 d
# [22] = 500 g ai/ha, postemergence, 0 to 100 scale, 0 no effect, 100 complete control
# [23] = Postemergence, 125 g ai/ha, visual injury, 0 to 100 scale (0 no effect, 100 complete control), approx. 10 d
smiles,measurement,setting,value
O=C(Nc1ccc(F)c(F)c1F)[C@H]1C(=O)N(CC(F)F)C[C@@H]1c1cccc(C(F)(F)F)c1 [Compound 1297],pest or weed control at 31 g/ha,"Kochia (Kochia scoparia) [1]; Bassia scoparia, pre-emergence, 240 h, 31 g ai/ha, Preemergence, 0 to 100 scale where 0 is no effect and 100 is complete control, read-out: Kochia plant response rating",0%
same,pest or weed control at 125 g/ha,"Kochia (Kochia scoparia) [1]; Bassia scoparia, pre-emergence, 240 h, 125 g ai/ha, preemergence, visual injury rating, 0 to 100 scale where 0 is no effect and 100 is complete control, approximately 10 d, read-out: Kochia plant response rating",0%
same,pest or weed control at 31 g/ha,"[2]; Echinochloa crus-galli, pre-emergence, 240 h, 31 g ai/ha, Preemergence, 0 to 100 scale where 0 is no effect and 100 is complete control, read-out: Barnyardgrass plant response rating",20%
same,pest or weed control at 125 g/ha,"[2]; Echinochloa crus-galli, pre-emergence, 240 h, 125 g ai/ha, preemergence, visual injury rating, 0 to 100 scale where 0 is no effect and 100 is complete control, approximately 10 d, read-out: Barnyardgrass plant response rating",20%
same,pest or weed control at 31 g/ha,"[3]; Setaria faberi, pre-emergence, 240 h, 31 g ai/ha, Preemergence, 0 to 100 scale where 0 is no effect and 100 is complete control, read-out: Foxtail, Giant plant response rating",0%
same,pest or weed control at 125 g/ha,"[3]; Setaria faberi, pre-emergence, 240 h, 125 g ai/ha, preemergence, visual injury rating, 0 to 100 scale where 0 is no effect and 100 is complete control, approximately 10 d, read-out: Foxtail, Giant plant response rating",80%
same,pest or weed control at 31 g/ha,"[4]; Amaranthus retroflexus, pre-emergence, 240 h, 31 g ai/ha, Preemergence, 0 to 100 scale where 0 is no effect and 100 is complete control, read-out: Pigweed plant response rating",0%
same,pest or weed control at 125 g/ha,"[4]; Amaranthus retroflexus, pre-emergence, 240 h, 125 g ai/ha, preemergence, visual injury rating, 0 to 100 scale where 0 is no effect and 100 is complete control, approximately 10 d, read-out: Pigweed plant response rating",0%
same,pest or weed control at 31 g/ha,"[5]; Ambrosia artemisiifolia, pre-emergence, 240 h, 31 g ai/ha, Preemergence, 0 to 100 scale where 0 is no effect and 100 is complete control, read-out: Ragweed plant response rating",0%
same,pest or weed control at 125 g/ha,"[5]; Ambrosia artemisiifolia, pre-emergence, 240 h, 125 g ai/ha, preemergence, visual injury rating, 0 to 100 scale where 0 is no effect and 100 is complete control, approximately 10 d, read-out: Ragweed plant response rating",0%
same,pest or weed control at 31 g/ha,"[6]; Lolium multiflorum, pre-emergence, 240 h, 31 g ai/ha, Preemergence, 0 to 100 scale where 0 is no effect and 100 is complete control, read-out: Ryegrass, Italian plant response rating",0%
same,pest or weed control at 125 g/ha,"[6]; Lolium multiflorum, pre-emergence, 240 h, 125 g ai/ha, preemergence, visual injury rating, 0 to 100 scale where 0 is no effect and 100 is complete control, approximately 10 d, read-out: Ryegrass, Italian plant response rating",0%
same,pest or weed control at 125 g/ha,"[7]; Galium, post-emergence, 240 h, 125 g ai/ha, Postemergence, visual rating about 10 d after treatment, read-out: Galium plant response rating (0 to 100 scale)",0%
same,pest or weed control at 31 g/ha,"[7]; Galium, post-emergence, 240 h, Postemergence, 31 g ai/ha, 0 is no effect, 100 is complete control, read-out: Galium plant response rating (0 to 100 scale)",0%
same,pest or weed control at 125 g/ha,"Kochia (Kochia scoparia) [8]; Bassia scoparia, post-emergence, 240 h, 125 g ai/ha, Postemergence, visual rating about 10 d after treatment, read-out: Kochia plant response rating (0 to 100 scale)",0%
same,pest or weed control at 31 g/ha,"Kochia (Kochia scoparia) [8]; Bassia scoparia, post-emergence, 240 h, Postemergence, 31 g ai/ha, 0 is no effect, 100 is complete control, read-out: Kochia plant response rating (0 to 100 scale)",0%
same,pest or weed control at 125 g/ha,"[9]; Echinochloa crus-galli, post-emergence, 240 h, 125 g ai/ha, Postemergence, visual rating about 10 d after treatment, read-out: Barnyardgrass plant response rating (0 to 100 scale, 0 no effect, 100 complete control)",20%
same,pest or weed control at 31 g/ha,"[9]; Echinochloa crus-galli, post-emergence, 240 h, Postemergence, 31 g ai/ha, 0 is no effect, 100 is complete control, read-out: Barnyardgrass plant response rating (0 to 100 scale)",0%
same,pest or weed control at 125 g/ha,"[10]; Alopecurus myosuroides, post-emergence, 240 h, 125 g ai/ha, Postemergence, visual rating about 10 d after treatment, read-out: Blackgrass plant response rating (0 to 100 scale)",0%
same,pest or weed control at 31 g/ha,"[10]; Alopecurus myosuroides, post-emergence, 240 h, Postemergence, 31 g ai/ha, 0 is no effect, 100 is complete control, read-out: Blackgrass plant response rating (0 to 100 scale)",0%
same,plant injury at 125 g/ha,"corn (Zea mays); Zea mays, post-emergence, 240 h, 125 g ai/ha, Postemergence, visual rating about 10 d after treatment, read-out: Corn plant response rating (0 to 100 scale)",0%
same,plant injury at 31 g/ha,"corn (Zea mays); Zea mays, post-emergence, 240 h, Postemergence, 31 g ai/ha, 0 is no effect, 100 is complete control, read-out: Corn plant response rating (0 to 100 scale)",0%
same,pest or weed control at 125 g/ha,"[11]; Setaria faberi, post-emergence, 240 h, 125 g ai/ha, Postemergence, visual rating about 10 d after treatment, read-out: Foxtail, Giant plant response rating (0 to 100 scale)",20%
same,pest or weed control at 31 g/ha,"[11]; Setaria faberi, post-emergence, 240 h, Postemergence, 31 g ai/ha, 0 is no effect, 100 is complete control, read-out: Foxtail, Giant plant response rating (0 to 100 scale)",0%
same,pest or weed control at 125 g/ha,"[12]; Amaranthus retroflexus, post-emergence, 240 h, 125 g ai/ha, Postemergence, visual rating about 10 d after treatment, read-out: Pigweed plant response rating (0 to 100 scale)",0%
same,pest or weed control at 31 g/ha,"[12]; Amaranthus retroflexus, post-emergence, 240 h, Postemergence, 31 g ai/ha, 0 is no effect, 100 is complete control, read-out: Pigweed plant response rating (0 to 100 scale)",0%
same,pest or weed control at 125 g/ha,"[13]; Ambrosia artemisiifolia, post-emergence, 240 h, 125 g ai/ha, Postemergence, visual rating about 10 d after treatment, read-out: Ragweed plant response rating (0 to 100 scale)",0%
same,pest or weed control at 31 g/ha,"[13]; Ambrosia artemisiifolia, post-emergence, 240 h, Postemergence, 31 g ai/ha, 0 is no effect, 100 is complete control, read-out: Ragweed plant response rating (0 to 100 scale)",0%
same,pest or weed control at 125 g/ha,"[14]; Lolium multiflorum, post-emergence, 240 h, 125 g ai/ha, Postemergence, visual rating about 10 d after treatment, read-out: Ryegrass, Italian plant response rating (0 to 100 scale)",0%
same,pest or weed control at 31 g/ha,"[14]; Lolium multiflorum, post-emergence, 240 h, Postemergence, 31 g ai/ha, 0 is no effect, 100 is complete control, read-out: Ryegrass, Italian plant response rating (0 to 100 scale)",0%
same,plant injury at 125 g/ha,"[15]; Triticum aestivum, post-emergence, 240 h, 125 g ai/ha, Postemergence, visual rating about 10 d after treatment, read-out: Wheat plant response rating (0 to 100 scale)",0%
same,plant injury at 31 g/ha,"[15]; Triticum aestivum, post-emergence, 240 h, Postemergence, 31 g ai/ha, 0 is no effect, 100 is complete control, read-out: Wheat plant response rating (0 to 100 scale)",0%
same,pest or weed control at 250 g/ha,"[16]; Echinochloa crus-galli, read-out: Barnyardgrass plant response rating",0%
same,pest or weed control at 250 g/ha,"[17]; Heteranthera limosa, read-out: Ducksalad plant response rating",0%
same,pest or weed control at 250 g/ha,"rice (Oryra sativa); Oryza sativa, read-out: Rice plant response rating",30%
same,pest or weed control at 250 g/ha,"[18]; Cyperus difformis, read-out: Sedge, Umbrella plant response rating",0%
CN1CC(c2cccc(OC(F)(F)C(F)F)c2)C(C(=O)Nc2cccc(F)c2F)C1=O (stereo not drawn) [Compound 392],"Plant response rating, Kochia",Kochia (Kochia scoparia) [1]; [19],50
same,Kochia plant response rating (0 to 100 scale),Kochia (Kochia scoparia) [1]; [20],70
same,"Plant response rating, Barnyardgrass",[2]; [19],90
same,Barnyardgrass plant response rating (0 to 100 scale),[2]; [20],90
same,"Plant response rating, Foxtail, Giant",[3]; [19],90
same,"Foxtail, Giant plant response rating (0 to 100 scale)",[3]; [20],90
same,"Plant response rating, Pigweed",[4]; [19],70
same,Pigweed plant response rating (0 to 100 scale),[4]; [20],80
same,"Plant response rating, Ragweed",[5]; [19],70
same,Ragweed plant response rating (0 to 100 scale),[5]; [20],60
same,"Plant response rating, Ryegrass, Italian",[6]; [19],40
same,"Ryegrass, Italian plant response rating (0 to 100 scale)",[6]; [20],80
same,Galium plant response rating,[7]; [21],70
same,"Plant response rating, Galium",[7]; [22],70
same,Kochia plant response rating,Kochia (Kochia scoparia) [8]; [21],50
same,"Plant response rating, Kochia",Kochia (Kochia scoparia) [8]; [22],70
same,"Plant response rating, Barnyardgrass",[9]; [22],90
same,"Plant response rating, Barnyardgrass",[9]; [23],80
same,"Plant response rating, Blackgrass",[10]; [22],70
same,"Plant response rating, Blackgrass",[10]; [23],70
same,Corn plant response rating,corn (Zea mays); [21],70
same,"Plant response rating, Corn",corn (Zea mays); [22],80
same,"Foxtail, Giant plant response rating",[11]; [21],90
same,"Plant response rating, Foxtail, Giant",[11]; [22],90
same,Pigweed plant response rating,[12]; [21],60
same,"Plant response rating, Pigweed",[12]; [22],70
same,Ragweed plant response rating,[13]; [21],50
same,"Plant response rating, Ragweed",[13]; [22],20
same,"Ryegrass, Italian plant response rating",[14]; [21],50
same,"Plant response rating, Ryegrass, Italian",[14]; [22],80
same,Wheat plant response rating,[15]; [21],20
same,"Plant response rating, Wheat",[15]; [22],70
same,"Plant response rating, Barnyardgrass",[16]; 13 to 15 d,60
same,"Plant response rating, Ducksalad",[17]; 13 to 15 d,90
same,"Plant response rating, Rice",rice (Oryra sativa); 13 to 15 d,20
same,"Plant response rating, Sedge, Umbrella",[18]; 13 to 15 d,0
